Measurements taken from patent publication US11167007B2, “FOXM1 modulators and uses thereof” (City of Hope, priority 2016, dated 2021).
Entries after “also recorded” stand apart in the source; their conditions may differ.

Tests used:
AR [1] = target: T1, AR (Homo sapiens, UniProt P10275); experiment: FRET-based AR conformation change reporter (CFP-AR-YFP, CARY) in GT1-7 cells; format: cell-based, mouse; set-up: Full length AR with cyan fluorescent protein (CFP) or yellow fluorescent protein (YFP) fused to either end (CARY); expressed in transfected cells
T1 sequence (P10275 1-920): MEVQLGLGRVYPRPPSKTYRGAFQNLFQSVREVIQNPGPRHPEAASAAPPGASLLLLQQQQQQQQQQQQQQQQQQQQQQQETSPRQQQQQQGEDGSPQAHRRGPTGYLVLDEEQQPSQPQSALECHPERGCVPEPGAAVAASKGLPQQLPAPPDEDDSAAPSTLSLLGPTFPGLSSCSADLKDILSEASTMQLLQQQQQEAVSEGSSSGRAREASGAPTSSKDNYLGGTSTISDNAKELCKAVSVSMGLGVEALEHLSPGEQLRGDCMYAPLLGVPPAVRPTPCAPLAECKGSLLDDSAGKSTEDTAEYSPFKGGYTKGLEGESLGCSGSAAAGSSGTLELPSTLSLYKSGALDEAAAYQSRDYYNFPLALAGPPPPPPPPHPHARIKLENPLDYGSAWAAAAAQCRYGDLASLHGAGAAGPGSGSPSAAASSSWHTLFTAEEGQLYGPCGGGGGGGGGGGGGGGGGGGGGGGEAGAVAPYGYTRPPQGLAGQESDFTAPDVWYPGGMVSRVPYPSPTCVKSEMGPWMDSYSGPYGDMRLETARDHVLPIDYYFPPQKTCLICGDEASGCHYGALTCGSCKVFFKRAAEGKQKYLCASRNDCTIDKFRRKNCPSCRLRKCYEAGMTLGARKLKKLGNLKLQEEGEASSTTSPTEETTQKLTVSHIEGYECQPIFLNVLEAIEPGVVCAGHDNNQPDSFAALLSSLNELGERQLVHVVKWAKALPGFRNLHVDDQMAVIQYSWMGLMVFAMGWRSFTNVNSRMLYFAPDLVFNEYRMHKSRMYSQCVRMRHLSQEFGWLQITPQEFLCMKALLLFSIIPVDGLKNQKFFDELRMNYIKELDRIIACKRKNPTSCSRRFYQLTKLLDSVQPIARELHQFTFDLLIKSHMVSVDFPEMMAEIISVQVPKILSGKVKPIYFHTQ
Protocol: Creation of stable C-AR-Y reporter cell lines. Cell lines listed above were either transfected with a plasmid or a virus containing the CFP-AR-YFP construct preceding an IRES and hygromycin resistance gene and clonal stable cell lines selected. Qualification criteria for the transfected cell lines were described by Jones et al, ACS Chem Biol, 3(7):412-8 (2008).
Screen for AR-modulators. Screening was performed essentially as described by Jones et al, ACS Chem Biol, 3(7):412-8 (2008). Briefly, C-AR-Y reporter GTI-7 were transferred to 96 well plates and treated with library compounds for 24 hours. […] The compounds to be tested were from the NCI/DTP Open Chemical Repository's Approved Oncology Drugs Set II, Diversity Set II and Mechanistic Set. […] After 24 hours, medium was aspirated and FRET was measured as previously described using a monochromator-based fluorescence plate reader (M1000, Tecan, Inc.). Jones et al, ACS Chem Biol, 3(7):412-8 (2008). […]
In order to identify potential cell-type selective AR modulators, the FRET-based assay of AR conformation change was utilized. […] This produces an accurate and quantifiable read-out of AR activity. […] Candidate hits were then further evaluated by dose response. […] In addition to FRET, AR transcriptional activity was also assessed in several cell lines by transfecting cells with a luciferase reporter driven by the human PSA promoter. […]

AR-FOXM1 co-localization = format: cell-based, murine; settings: GT1-7 CARY cells, 24 hours, FIG. 4B
Protocol: Cells were fixed in 2% paraformaldehyde prior to incubating with primary antibody (FOXM1: mouse, AbCam) overnight at 4° C. Following washing, secondary antibody (Alexa 954 goat anti-mouse, Invitrogen) was applied for 45 minutes at 37° C. After washing, slides were mounted and analyzed using a confocal microscope (Zeiss). The coloc-2 Image J plug-in (Fiji) was used to quantify co-localization of AR and FOXM1 from three independent samples using both Li's Intensity Correlation Quotient (ICQ) and Manders split coefficients co-localization values. One-way analysis of variance was applied to determine statistical significant among groups, where p<0.05 was considered significant.

AR [2] = experiment: Western blot of AR levels in GT1-7 CARY cells; format: cell-based, murine
From the text: Western Blot. Cell lysates was separated on a 6% SDS page gel and transferred to a nitrocellulose membrane. The membrane was blocked for one hour in 5% skim milk dissolved in TBS-T and probed with the following antibodies ([…]): FoxM1 (rabbit, GeneTex), AR: 441 (mouse, Santa Cruz Biotechnology), β-catenin (rabbit 9562, Cell Signaling Technology), p84 (mouse, GeneTex) and actin (mouse, Santa Cruz Biotechnology). Horse radish peroxidase linked secondary antibodies were used along with ECL reagents for visualization. Western blots were quantified using Quantity One analysis software (BioRad).
It has been previously reported that thiostrepton causes decreased levels of FOXM1. Hegde et al, Nat Chem, 3(9):725-31 (2011); Gartel, Front Oncol, 3:150 (2013). […] The nuclear association between FOXM1 and β-catenin increases the transcriptional activity of both factors. Zhang et al, Cancer Cell, 20(4):427-42 (2011). β-catenin is a key AR coactivator in a variety of cells. Yang, J Biol Chem, 277(13):11336-44 (2002); Truica et al, Cancer Res, 60(17):4709-13 (2000). The inventors believed that thiostrepton could inhibit AR activity by limiting access to nuclear β-catenin via FOXM1 depletion. […] As expected, control actin protein was observed primarily in cytoplasmic fraction.

SMILES: C=C(NC(=O)C(=C)NC(=O)c1csc(C2=N[C@@H]3c4csc(n4)[C@H]4NC(=O)c5csc(n5)[C@H]([C@](C)(O)[C@@H](C)O)NC(=O)[C@H]5CSC(=N5)/C(=C/C)NC(=O)[C@H]([C@@H](C)O)NC(=O)c5csc(n5)[C@]3(CC2)NC(=O)[C@H](C)NC(=O)C(=C)NC(=O)C(=C)NC(=O)[C@H](C(C)C)N[C@@H]2C=Cc3c([C@H](C)O)cc(nc3[C@H]2O)C(=O)O[C@@H]4C)n1)C(N)=O [NSC285116, siomycin A]
- inhibition of DHT-induced AR conformation change (AR [1]; dose response, GT1-7 cells, FIG. 1B): dose dependent inhibition
- AR inhibitor (antagonist) activity in words (AR [1]; neuronal GT1-7 cells, FRET or luciferase): greatest potency; also recorded: demonstrated antagonist activity

SMILES: C=C(NC(=O)C(=C)NC(=O)c1csc(C2=N[C@@H]3c4csc(n4)[C@H]4NC(=O)c5csc(n5)[C@H]([C@](C)(O)[C@@H](C)O)NC(=O)[C@H]5CSC(=N5)/C(=C/C)NC(=O)[C@H]([C@@H](C)O)NC(=O)c5csc(n5)[C@]3(CC2)NC(=O)[C@H](C)NC(=O)C(=C)NC(=O)[C@H](C)NC(=O)[C@H]([C@@H](C)CC)N[C@@H]2C=Cc3c([C@H](C)O)cc(nc3[C@H]2O)C(=O)O[C@@H]4C)n1)C(N)=O [thiostrepton]
- association (co-localization) between FOXM1 and AR (AR-FOXM1 co-localization): not significantly affected
- AR levels (Western blot) (AR [2]): not consistently decreased
